Among the data in US20240101528A1, “SUBSTITUTED PYRAZOLO PIPERIDINE CARBOXYLIC ACIDS” (BAYER AKTIENGESELLSCHAFT, priority 2020, published 2024) are EC50 and MEC values, retold here.

For the assay, the target named is T1, recombinant guanylate cyclase reporter cell line (Rattus norvegicus, UniProt P20595).
T1 construct: expressed in transfected cells
T1 sequence (P20595 1-619): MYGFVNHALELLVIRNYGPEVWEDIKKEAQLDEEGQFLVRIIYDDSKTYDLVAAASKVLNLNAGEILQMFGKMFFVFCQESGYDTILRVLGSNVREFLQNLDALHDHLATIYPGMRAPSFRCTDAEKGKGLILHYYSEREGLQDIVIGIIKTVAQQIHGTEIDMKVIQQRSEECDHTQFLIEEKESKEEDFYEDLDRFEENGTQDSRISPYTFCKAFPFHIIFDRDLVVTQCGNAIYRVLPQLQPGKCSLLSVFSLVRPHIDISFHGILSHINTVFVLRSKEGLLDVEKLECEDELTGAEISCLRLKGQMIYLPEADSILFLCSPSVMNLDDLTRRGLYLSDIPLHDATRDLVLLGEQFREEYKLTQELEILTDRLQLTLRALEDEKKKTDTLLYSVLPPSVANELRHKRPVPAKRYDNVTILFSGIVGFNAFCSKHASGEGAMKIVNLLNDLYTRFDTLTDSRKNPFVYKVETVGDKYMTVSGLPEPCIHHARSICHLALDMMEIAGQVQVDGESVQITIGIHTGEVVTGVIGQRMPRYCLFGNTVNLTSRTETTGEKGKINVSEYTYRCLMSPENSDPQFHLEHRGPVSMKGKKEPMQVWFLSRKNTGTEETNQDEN
T1 sequence (P19686 1-690 partner): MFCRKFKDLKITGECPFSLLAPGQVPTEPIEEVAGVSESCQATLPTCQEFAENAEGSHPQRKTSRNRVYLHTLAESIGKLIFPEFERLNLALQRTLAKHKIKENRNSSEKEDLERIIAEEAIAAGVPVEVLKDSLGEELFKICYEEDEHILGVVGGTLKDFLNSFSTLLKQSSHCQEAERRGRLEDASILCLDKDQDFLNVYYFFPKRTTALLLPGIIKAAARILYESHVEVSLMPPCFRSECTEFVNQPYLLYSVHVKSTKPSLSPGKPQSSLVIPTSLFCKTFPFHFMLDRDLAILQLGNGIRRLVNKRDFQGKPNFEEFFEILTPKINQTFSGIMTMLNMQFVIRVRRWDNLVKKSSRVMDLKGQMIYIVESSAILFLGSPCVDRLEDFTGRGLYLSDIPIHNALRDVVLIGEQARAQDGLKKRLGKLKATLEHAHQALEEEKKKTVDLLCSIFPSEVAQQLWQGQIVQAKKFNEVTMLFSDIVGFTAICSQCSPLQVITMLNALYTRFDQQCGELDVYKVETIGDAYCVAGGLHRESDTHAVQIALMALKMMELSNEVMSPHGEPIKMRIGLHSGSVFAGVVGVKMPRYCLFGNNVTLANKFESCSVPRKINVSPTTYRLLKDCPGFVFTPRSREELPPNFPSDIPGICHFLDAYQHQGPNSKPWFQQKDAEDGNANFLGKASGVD
As to the kind of experiment: Effect on a recombinant guanylate cyclase reporter cell line. Particulars: for EC50: half maximal effective concentration; for MEC: minimum effective concentration. Type of assay: cell-based. The protocol: B-1. Effect on a Recombinant Guanylate Cyclase Reporter Cell Line
The cellular activity of the compounds according to the invention was determined using a recombinant guanylate cyclase reporter cell line, as described in F. Wunder et al., Anal. Biochem. 339, 104-112 (2005).

The structures appear in SMILES notation. Structures can show the parent of a compound that is named as a salt. A value given as a limit tells only on which side of the number the result lay.

On to `O=C(O)c1cnn(C2CCCN(c3cc(Cl)ccc3-c3ccc(N4CCN(CCOC(F)(F)F)CC4)cc3)C2)c1C(F)F` (single isomer, unassigned; enantiomer 2) [Example 26, 1-[1-(4-Chloro-4′-{4-[2-(trifluoromethoxy)ethyl]piperazin-1-yl}[biphenyl]-2-yl)piperidin-3-yl]-5-(difluoromethyl)-1H-pyrazole-4-carboxylic acid hydrochloride (Enantiomer 2)], for which the half-maximal effective concentration (EC50) (commonly the midpoint of the concentration-response curve) stood at 6.5 nM and the MEC is given as 1.0 nM.
Consider `O=C(O)c1cnn(C2CCCN(c3cc(Cl)ccc3-c3ccc(N4CCN(CC5(C(F)(F)F)CC5)CC4)cc3)C2)c1C(F)F` (single isomer, unassigned; enantiomer 2) [Example 40, 1-{1-[4-Chloro-4′-(4-{[1-(trifluoromethyl)cyclopropyl]methyl}piperazin-1-yl) [biphenyl]-2-yl]piperidin-3-yl}-5-(difluoromethyl)-1H-pyrazole-4-carboxylic acid hydrochloride (Enantiomer 2)], for which the concentration giving a half-maximal response (EC50) stood at 11.8 nM and the MEC amounted to 1.0 nM.
Taken in the same sequence, the figures for `O=C(O)c1cnn(C2CCCN(c3cc(Cl)ccc3-c3ccc(N4CCN(C5COC5)CC4)cc3)C2)c1C(F)F` (single isomer, unassigned; enantiomer 2) [Example 43, 1-(1-{4-Chloro-4′-[4-(oxetan-3-yl)piperazin-1-yl][biphenyl]-2-yl}piperidin-3-yl)-5-(difluoromethyl)-1H-pyrazole-4-carboxylic acid hydrochloride (Enantiomer 2)] were 42.5 nM and 10.0 nM.
As to `O=C(O)c1cnn(C2CCCN(c3cc(Cl)ccc3-c3ccc(N4CCCC4)cc3)C2)c1C(F)F` (single isomer, unassigned; enantiomer 2) [Example 45, 1-{1-[4-Chloro-4′-(pyrrolidin-1-yl)[biphenyl]-2-yl]piperidin-3-yl}-5-(difluoromethyl)-1H-pyrazole-4-carboxylic acid (Enantiomer 2)], the EC50 was determined as 42.5 nM and the MEC is reported as 3.0 nM.
Regarding `N#CCCN1CCN(c2ccc(-c3ccc(Cl)cc3N3CCCC(n4ncc(C(=O)O)c4C(F)F)C3)cc2)CC1` (single isomer, unassigned; enantiomer 2) [Example 46, 1-(1-{4-Chloro-4′-[4-(2-cyanoethyl)piperazin-1-yl][biphenyl]-2-yl}piperidin-3-yl)-5-(difluoromethyl)-1H-pyrazole-4-carboxylic acid (Enantiomer 2)], the EC50 was determined as 1.7 nM and the MEC worked out at 0.3 nM.
For `NC(=O)CCN1CCN(c2ccc(-c3ccc(Cl)cc3N3CCCC(n4ncc(C(=O)O)c4C(F)F)C3)cc2)CC1` (single isomer, unassigned; enantiomer 2) [Example 47, 1-(1-{4′-[4-(3-Amino-3-oxopropyl)piperazin-1-yl]-4-chloro[biphenyl]-2-yl}piperidin-3-yl)-5-(difluoromethyl)-1H-pyrazole-4-carboxylic acid (Enantiomer 2)] the same measures were 18 nM and 3.0 nM.
Taken in the same sequence, the figures for `CC(C)C(=O)N1CCN(c2ccc(-c3ccc(Cl)cc3N3CCCC(n4ncc(C(=O)O)c4C(F)F)C3)cc2)CC1` (single isomer, unassigned; enantiomer 2) [Example 48, 1-{1-[4-Chloro-4′-(4-isobutyrylpiperazin-1-yl)[biphenyl]-2-yl]piperidin-3-yl}-5-(difluoromethyl)-1H-pyrazole-4-carboxylic acid (Enantiomer 2)] were 7.5 nM and 3.0 nM.
For `CC(C)(F)C(=O)N1CCN(c2ccc(-c3ccc(Cl)cc3N3CCCC(n4ncc(C(=O)O)c4C(F)F)C3)cc2)CC1` (single isomer, unassigned; enantiomer 2) [Example 49, 1-(1-{4-Chloro-4′-[4-(2-fluoro-2-methylpropanoyl)piperazin-1-yl][biphenyl]-2-yl}piperidin-3-yl)-5-(difluoromethyl)-1H-pyrazole-4-carboxylic acid (Enantiomer 2)] the same measures were 13.9 nM and 3.0 nM.
For `O=C(O)c1cnn(C2CCCN(c3cc(Cl)ccc3-c3ccc(N4CCN(C(=O)C5CC5)CC4)cc3)C2)c1C(F)F` (single isomer, unassigned; enantiomer 2) [Example 50, 1-(1-{4-Chloro-4′-[4-(3-cyclopropylcarbonyl)piperazin-1-yl][biphenyl]-2-yl}piperidin-3-yl)-5-(difluoromethyl)-1H-pyrazole-4-carboxylic acid (Enantiomer 2)], the EC50 is 1.9 nM and the MEC was determined as 0.3 nM.
Taken in the same sequence, the figures for `CC(C)CC(=O)N1CCN(c2ccc(-c3ccc(Cl)cc3N3CCCC(n4ncc(C(=O)O)c4C(F)F)C3)cc2)CC1` (single isomer, unassigned; enantiomer 2) [Example 51, 1-(1-{4-Chloro-4′-[4-(3-methylbutanoyl)piperazin-1-yl][biphenyl]-2-yl}piperidin-3-yl)-5-(difluoromethyl)-1H-pyrazole-4-carboxylic acid (Enantiomer 2)] were 28.4 nM and 3.0 nM.
As to `CCN1CCN(c2ccc(-c3ccc(Cl)cc3N3CC(n4ncc(C(=O)O)c4C(F)F)CC(F)(F)C3)cc2)CC1` (single isomer, unassigned; enantiomer 2) [Example 53, 1-{1-[4-chloro-4′-(4-ethylpiperazin-1-yl)[biphenyl]-2-yl]-5,5-difluoropiperidin-3-yl}-5-(difluoromethyl)-1H-pyrazole-4-carboxylic acid hydrochloride (Enantiomer 2)], the half-maximal effective concentration (EC50) came out at 34 nM and the MEC stood at 10.0 nM.
For `CC(C)CN1CCN(c2ccc(-c3ccc(Cl)cc3N3CC(n4ncc(C(=O)O)c4C(F)F)CC(F)(F)C3)cc2)CC1` (single isomer, unassigned; enantiomer 2) [Example 55, 1-{1-[4-Chloro-4′-(4-isobutylpiperazin-1-yl)[biphenyl]-2-yl]-5,5-difluoropiperidin-3-yl}-5-(difluoromethyl)-1H-pyrazole-4-carboxylic acid hydrochloride (Enantiomer 2)] the same measures were 56.5 nM and 10.0 nM.
Taken in the same sequence, the figures for `CCC(=O)N1CCC(c2ccc(-c3ccc(Cl)cc3N3CCCC(n4ncc(C(=O)O)c4C(F)F)C3)cc2)CC1` (single isomer, unassigned; enantiomer 2) [Example 56, 1-{1-[4-Chloro-4′-(1-propanoylpiperidin-4-yl)[biphenyl]-2-yl]piperidin-3-yl}-5-(difluoromethyl)-1H-pyrazole-4-carboxylic acid hydrochloride (Enantiomer 2)] were 1.5 nM and 1.0 nM.
As for `O=C(O)c1cnn(C2CCCN(c3cc(Cl)ccc3-c3ccc(C4CCN(C(=O)C5CC5)CC4)cc3)C2)c1C(F)F` (single isomer, unassigned; enantiomer 2) [Example 57, 1-(1-{4-Chloro-4′-[1-(cyclopropylcarbonyl)piperidin-4-yl][biphenyl]-2-yl}piperidin-3-yl)-5-(difluoromethyl)-1H-pyrazole-4-carboxylic acid hydrochloride (Enantiomer 2)], the 50% effective concentration (EC50) is less than 1 nM and the MEC stood at 0.3 nM.
Turning to `O=C(O)c1cnn(C2CCCN(c3cc(Cl)ccc3-c3ccc(C4CN(CC(F)(F)F)C4)cc3)C2)c1C(F)F` (single isomer, unassigned; enantiomer 2) [Example 58, 1-(1-{4-Chloro-4′-[1-(2,2,2-trifluoroethyl)azetidin-3-yl][biphenyl]-2-yl}piperidin-3-yl)-5-(difluoromethyl)-1H-pyrazole-4-carboxylic acid hydrochloride (Enantiomer 2)], the 50% effective concentration (EC50) stood at 31.5 nM and the MEC came to 3.0 nM.
